Assay: Antioxidant activity (Trolox equivalent) of materials substituted for glycerol

OCC(O)CO [Glycerol, glycerol]
Antioxidant (Trolox equivalent μM/g): 0 µM/g
